Measurements as given in patent US10308916B2, “Omega-transaminase mutants with activity improvements toward ketones and methods for producing optically pure amines” (Industry-Academic Cooperation Foundation, Yonsei University, priority 2015, dated 2019).
Read-outs that look alike come from different tables or passages of the source.

What was measured:
OATA WT [1] = assay type: biochemical, Ochrobactrum anthropi; conditions: pH 7
OATA WT [2] = assay type: biochemical
OATA WT [3] = assay type: biochemical; remark: listed apart in the source
OATA WT [4] = assay type: biochemical, Ochrobactrum anthropi
OATA = OATA (Brucella anthropi, UniProt A6WVC6); assay type: biochemical
OATA WT [5] = assay type: biochemical, Ochrobactrum anthropi; remark: listed apart in the source
ARTAmut = conditions: cited from earlier work
OATA WT [6] = assay type: biochemical; remark: listed apart in the source
[7] = tested on: (S)-selective omega-transaminase from Ochrobactrum anthropi; conditions: cited from earlier work
OATA W58A [8] = assay type: biochemical; conditions: pH 7
OATA W58I = assay type: biochemical; conditions: pH 7
OATA W58M = assay type: biochemical; conditions: pH 7
OATA L57A/W58A = assay type: biochemical
OATA W58L = assay type: biochemical; conditions: pH 7
OATA W58A [9] = assay type: biochemical
OATA L57A/W58A/V154A = assay type: biochemical
OATA L57A = assay type: biochemical
OATA W58V = assay type: biochemical; conditions: pH 7
OATA WT [10] = assay type: biochemical, Ochrobactrum anthropi; remark: listed apart in the source
CC(=O)C(=O)O = assay: purified protein, by the assay type

Row | Molecule | Relative activity to acetophenone, OATA WT (OATA WT [1]) [%] | Relative reactivity, OATA (OATA WT [3]) [%] | further results
1 | 1-acetonaphthone [Ketone 1i] | 43 | – | Conversion (%) OATA (OATA WT [2]): 13%
2 | CC(C)C(N)c1ccccc1 (racemic) [2-Methyl-1-phenylpropan-1-amine] | – | 0.1 | –
3 | CC(N)CO (racemic) [DL-Alaninol] | – | 16 | –
4 | CC(C)C(C)N (stereo not shown) [1,2-Dimethylpropylamine] | – | 18 | –
5 | CC(C)CC(C)N (stereo not shown) [1,3-Dimethylbutylamine] | – | 3 | –
6 | COCC(C)N (stereo not shown) [1-Methoxy-2-propylamine] | – | 29 | –
7 | CC(N)CCc1ccccc1 (stereo not shown) [1-Methyl-3-phenylpropylamine] | – | 73 | –
8 | CC(C)(C)C(N)c1ccccc1 (stereo not shown) [2,2-Dimethyl-1-phenylpropan-1-amine] | – | 0.1 | –
9 | CCCC(C)N (stereo not shown) [2-Aminopentane] | – | 13 | –
10 | CCC(=O)C(=O)O [2-oxobutanoic acid] | – | – | Relative activity, OATA WT (OATA WT [4]): 17.2%
11 | CCCCC(=O)C(=O)O [2-oxohexanoic acid] | – | – | Relative activity, OATA WT (OATA WT [4]): 1%
12 | CCCCCCC(=O)C(=O)O [2-oxooctanoic acid] | – | – | Relative activity, OATA WT (OATA WT [4]): 1%
13 | CCCC(=O)C(=O)O [2-oxopentanoic acid] | – | – | Relative activity, OATA WT (OATA WT [4]): 0.6%
14 | CC(C)C(=O)C(=O)O [3-methyl-2-oxobutyric acid] | – | – | Relative activity, OATA WT (OATA WT [4]): did not react
15 | CC(N)c1ccc(F)cc1 (stereo not drawn) [4-Fluoro-α-methylbenzylamine] | – | 31 | –
16 | C[C@H](N)c1cccc2ccccc12 [(S)-1-(1-naphthyl)ethylamine] | – | 0.5 | –
17 | C[C@H](N)C1CC1 [(S)-1-Cyclopropylethylamine] | – | 29 | –
18 | N[C@H]1CCc2ccccc21 [(S)-1-aminoindan] | – | 9 | –
19 | CCCC[C@H](C)N [(S)-2-aminohexane] | – | 31 | –
20 | CCCCCC[C@H](C)N [(S)-2-aminooctane] | – | 146 | –
21 | COc1ccc([C@H](C)N)cc1 [(S)-4-methoxy-α-methylbenzylamine] | – | 116 | –
22 | Cc1ccc([C@H](C)N)cc1 [(S)-α,4-dimethylbenzylamine] | – | 86 | –
23 | CC[C@H](N)c1ccccc1 [(S)-α-ethylbenzylamine] | – | 2 | –
24 | C[C@H](N)c1ccccc1 [(S)-α-methylbenzylamine] | – | 100 | kcat, OATA (OATA): 24000, 20000 ×10^−3 s^−1; Relative activity, OATA WT (OATA WT [5]): 100%

Row | Molecule | Relative activity to acetophenone, OATA WT (OATA WT [1]) [%] | Relative reactivity, OATA (OATA WT [3]) [%] | further results
25 | CCC[C@H](N)c1ccccc1 [(S)-α-propylbenzylamine] | – | 0.2 | –
26 | NCc1ccccc1 [Benzylamine] | – | 274 | –
27 | CC(C)N [Isopropylamine] | – | 20 | kcat, OATA (OATA): 9700, 9300 ×10^−3 s^−1
28 | CC(=O)c1ccccc1 [Ketone 1a, acetophenone] | 100 | – | Conversion (ARTAmut): 19%; Relative activity, OATA WT (OATA WT [6]): 100%; activity relative to pyruvate [7]: 0.03%; kcat, OATA (OATA): 9.7, 540 ×10^−3 s^−1
29 | CCC(=O)c1ccccc1 [Ketone 1b, propiophenone] | 1 | – | Relative activity to acetophenone, OATA W58A (OATA W58A [8]): 14%; Relative activity to acetophenone, OATA W58I (OATA W58I): 14%; Relative activity, OATA WT (OATA WT [6]): 17%; Relative activity to acetophenone, OATA W58M (OATA W58M): 17%; Relative activity, OATA L57A/W58A (OATA L57A/W58A): 387%; Relative activity to acetophenone, OATA W58L (OATA W58L): 2%; Relative activity, OATA W58A (OATA W58A [9]): 259%; Relative activity, OATA L57A/W58A/V154A (OATA L57A/W58A/V154A): 821%; Relative activity, OATA L57A (OATA L57A): 49%; Relative activity to acetophenone, OATA W58V (OATA W58V): 16%
30 | CCCC(=O)c1ccccc1 [Ketone 1c, butyrophenone] | 0 | – | Relative activity, OATA WT (OATA WT [6]): 2%
31 | CC(=O)c1ccc(C)cc1 [Ketone 1d, 4-methylacetophenone] | 51 | – | Conversion (%) OATA (OATA WT [2]): 7%
32 | COc1ccc(C(C)=O)cc1 [Ketone 1e, 4-methoxyacetophenone] | 29 | – | –
33 | CC(=O)CCc1ccccc1 [Ketone 1f, benzylacetone] | 536 | – | Conversion (%) OATA (OATA WT [2]): 26%
34 | O=C1CCc2ccccc21 [Ketone 1g] | – | – | Reaction rate OATA (OATA WT [10]): did not react
35 | O=C1CCCc2ccccc21 [Ketone 1h] | – | – | Reaction rate OATA (OATA WT [10]): did not react
36 | CCCC(C)=O [Ketone 1j, 2-pentanone] | 83 | – | –
37 | CCCCC(C)=O [Ketone 1k, 2-hexanone] | 151 | – | Conversion (%) OATA (OATA WT [2]): 14%
38 | CCCCCCC(C)=O [Ketone 1l, 2-octanone] | 208 | – | Conversion (%) OATA (OATA WT [2]): 30%
39 | CC(=O)C(C)C [Ketone 1m, 3-methyl 2-butanone] | 161 | – | –
40 | CC(=O)CC(C)C [Ketone 1n, 4-methyl-2-pentanone] | 21 | – | –
41 | CCC(C)=O [Ketone 2-butanone, 2-butanone] | 317 | – | –
42 | Cc1cccc(C)c1OCC(C)N (stereo not shown) [Mexiletine, reference compound] | – | 27 | –
43 | CC(=O)CO [hydroxyacetone] | 364 | – | –
44 | COCC(C)=O [methoxyacetone] | 571 | – | –
45 | CC(=O)C(=O)O [pyruvate, pyruvic acid] | – | – | Relative activity, OATA WT (OATA WT [4]): 100%
46 | (Brucella anthropi ATCC 49188) | – | – | Km (CC(=O)C(=O)O): 0.12, 2.1 mM; kcat (CC(=O)C(=O)O): 2600, 19000; kcat/Km (CC(=O)C(=O)O): 22000, 9000
47 | (S)-sec-butylamine | – | 29 | –
48 | cyclpropyl methyl ketone [Ketone 1o] | 17 | – | –
